Experimental data published in US9422263B2, “Fluoro-substituted 3,5-dicyano-4-(1H-indazol-5-yl)-2,6-dimethyl-1,4-dihydropyridine derivatives and methods of use thereof” (BAYER PHARMA AKTIENGESELLSCHAFT, priority 2009, dated 2016).

Assays:
[1] = target: recombinant kinase domain of the human c-Met (amino acids 960-1390) (Homo sapiens (Human), UniProt P08581); experiment: c-Met receptor tyrosine kinase homogeneous time-resolved fluorescence assay (alternative format); format: biochemical; details: HTRF format; ATP 10 μM
Chain of recombinant kinase domain of the human c-Met (amino acids 960-1390) (P08581 960-1390): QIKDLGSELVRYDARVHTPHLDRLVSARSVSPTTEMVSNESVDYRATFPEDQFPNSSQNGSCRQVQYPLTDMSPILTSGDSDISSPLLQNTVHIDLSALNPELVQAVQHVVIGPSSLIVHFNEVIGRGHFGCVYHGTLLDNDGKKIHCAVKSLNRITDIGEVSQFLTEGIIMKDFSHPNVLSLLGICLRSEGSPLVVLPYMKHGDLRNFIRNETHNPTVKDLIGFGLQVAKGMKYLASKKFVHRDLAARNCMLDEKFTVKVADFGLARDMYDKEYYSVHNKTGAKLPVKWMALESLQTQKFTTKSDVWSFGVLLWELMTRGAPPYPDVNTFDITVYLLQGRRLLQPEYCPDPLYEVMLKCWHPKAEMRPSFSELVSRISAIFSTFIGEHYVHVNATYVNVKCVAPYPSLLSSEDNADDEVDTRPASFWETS
From the text: c-Met Receptor Tyrosine Kinase Homogeneous Time-Resolved Fluorescence Assay (Alternative Format):
The N-terminally His6-tagged recombinant kinase domain of the human c-Met (amino acids 960-1390), expressed in insect cells (SF21) and purified by Ni-NTA affinity chromatography and consecutive size exclusion chromatography (Superdex 200), is used. Alternatively, commercially available c-Met (Millipore) can be used. As substrate for the kinase reaction, the biotinylated poly-Glu, Tyr (4:1) copolymer (#61GTOBLC, Cis Biointernational, Marcoule, France) is used.
For the assay, […] of a 100-fold concentrated solution of the test compound in DMSO is pipetted into a black low-volume 384-well microtiter plate (Greiner Bio-One, Frickenhausen, Germany). 2 μL of a solution of c-Met in assay buffer [25 mM Hepes/NaOH, pH 7.5; 5 mM MgCl2; 5 mM MnCl2; 2 mM dithiothreitol; 0.1% (v/v) Tween 20 (Sigma); 0.1% (w/v) bovine serum albumin] are added, and the mixture is incubated for 15 min at 22° C. to allow pre-binding of the test compound to the enzyme before the start of the kinase reaction. Then, the kinase reaction is started by the addition of 3 μL of a solution of adenosine triphosphate (ATP, 16.7 μM; final concentration in the 5 μL assay volume is 10 μM) and substrate (2.27 μg/mL, final concentration in the 5 μL assay volume is 1.36 μg/mL ˜30 nM) in assay buffer, and the resulting mixture is incubated for a reaction time of 30 min at 22° C. The concentration of c-Met in the assay is adjusted depending on the activity of the enzyme lot and is appropriately chosen to have the assay in the linear range; typical enzyme concentrations are in the range of about 0.03 nM (final concentration in the 5 μL assay volume). The reaction is stopped by the addition of 5 μL of a solution of HTRF detection reagents [40 nM streptavidine-X Lent and 2.4 nM PT66-Eu-chelate, an europium-chelate labelled anti-phosphotyrosine antibody (Perkin-Elmer)] in an aqueous EDTA solution [100 mM EDTA, 0.2% (w/v) bovine serum albumin in 50 mM HEPES/NaOH, pH 7.5].
The resulting mixture is incubated for 1 h at 22° C. to allow the binding of the biotinylated phosphorylated peptide to the streptavidine-XLent and the PT66-Eu-chelate. Subsequently, the amount of phosphorylated substrate is evaluated by measurement of the resonance energy transfer from the PT66-Eu-chelate to the streptavidine-XLent. Therefore, the fluorescence emissions at 620 nm and 665 nm after excitation at 350 nm are measured in an HTRF reader, e.g. Rubystar (BMG Lab-technologies, Offenburg, Germany) or Viewlux (Perkin-Elmer). The ratio of the emissions at 665 nm and at […] is taken as the measure for the amount of phosphorylated substrate. The data are normalised (enzyme reaction without inhibitor=0% inhibition; all other assay components but no enzyme=100% inhibition).

[2] = Pharmacokinetics after intravenous administration of test compounds; format: in vivo, rat; details: for in vivo PK, rat i.v. CLblood: male Wistar rats, total blood clearance; for in vivo PK, rat i.v. Fmax, calc: Fmax,calc=[1−CLblood/Qh]*100, Qh 4.2 L per h per kg
Description: Pharmacokinetics after Intravenous Administration of Test Compounds: Male Wistar rats (Harlan Laboratories) are anesthetized and a catheter is inserted into the jugular vein of the rat. The next day, a defined dose of the test compound is administered as solution by injection into the tail vein. Blood samples are collected through the jugular catheter during the next 24 h (8-11 time points). Blood is centrifuged in heparin-tubes, and each plasma sample is treated with acetonitrile for protein precipitation. After centrifugation, the test compound in the supernatant is quantified using an LC-MS/MS method. The determined plasma concentrations are used for the calculation of pharmacokinetic parameters, such as AUC (area under the plasma concentration vs. time curve), Vss (volume of distribution under steady-state conditions), Cmax (highest test compound concentration observed in plasma following administration), t1/2 (half-life) and CL (total clearance of the test compound from the plasma). For the calculation of the blood clearance, the blood to plasma partitioning is determined by incubation of the test compound in blood of rats. After separation of the plasma by centrifugation, the concentration in the plasma is determined by an LC-MS/MS method. Under the assumption that the test compound is completely absorbed, the theoretically maximum achievable bioavailability Fmax,calc is calculated by the equation Fmax,calc=[1−CLblood/Qh]*100, wherein CLblood is the total blood clearance and Qh is the hepatic blood flow in rat of 4.2 L per h per kg.

[3] = Caco-2 permeability assay; format: in vitro ADME; details: human, apical to basolateral, 2 h at 37° C., Table 3, read-out: Caco-2 permeability PappA-B
From the text: Caco-2 Permeability Assay:
The in vitro permeation of a test compound across a Caco-2 cell monolayer is a well-established assay system to predict the permeability from the gastro-intestinal tract [cf. P. Artursson and J. Karlsson: Correlation between oral drug absorption in humans and apparent drug permeability coefficients in human intestinal epithelial (Caco-2) cells, Biochem. Biophys. 175 (3), 880-885 (1991)]. The permeability of the compounds of the present invention in such Caco-2 cells was determined as described below:
Human caco-2 cells (ACC No. 169, DSMZ, German Collection of Microorganisms and Cell Cultures, Braunschweig, Germany) are seeded on 24-well insert plates and are allowed to grow for 14-16 days. For permeability studies, the test compounds are dissolved in DMSO and diluted to the final test concentration of 2 μM with transport buffer [Hanks' Buffered Salt Solution, Gibco/Invitrogen, further supplemented with glucose (final concentration 19.9 mM) and HEPES (final concentration 9.8 mM)]. For determination of the apical to basolateral permeability (PappA-B), the test compound solution is added to the apical side of the cell monolayer and transport buffer to the basolateral side of the monolayer; for determination of the basolateral to apical permeability (PappB-A), the test compound solution is added to the basolateral side of the cell monolayer and transport buffer to the apical side of the monolayer. Samples are taken from the donor compartment at the beginning of the experiment to confirm mass balance. After an incubation of 2 h at 37° C., samples are taken from both compartments. Samples are analyzed by LC-MS/MS, and the apparent permeability coefficients are calculated. Lucifer Yellow permeability is assayed for each cell monolayer to ensure cell monolayer integrity, and the permeability of Atenolol (low permeability marker) and Sulfasalazine (marker for active excretion) is determined for each batch as quality control.

Row | IC50 [1] [nM] | in vivo PK, rat i.v. CLblood [2] [mL/min/kg] | in vivo PK, rat i.v. Fmax, calc [2] [%] | Papp at 2 h, 2 μM [3] [×10⁻⁶ cm/s] | Compound
1 | 2 | 52.3 | 25 | 16.4 | CC1=C(C#N)C(c2ccc3[nH]nc(C)c3c2)C(C#N)=C(C(F)F)N1 (single isomer, unassigned) [Example 3, 2-(Difluoromethyl)-6-methyl-4-(3-methyl-1H-indazol-5-yl)-1,4-dihydropyridine-3,5-dicarbonitrile]
2 | 1 | 28 | 60 | 31.1 | CC1=C(C#N)C(c2ccc3[nH]nc(C)c3c2)C(C#N)=C(C(F)(F)F)N1 (single isomer, unassigned) [Example 6]
3 | 3 | 4.67 | 93 | 27.1 | Cc1n[nH]c2cc(F)c(C3C(C#N)=C(C(F)F)NC(C(F)F)=C3C#N)cc12 [Example 14, 2,6-Bis(difluoromethyl)-4-(6-fluoro-3-methyl-1H-indazol-5-yl)-1,4-dihydropyridine-3,5-dicarbonitrile]
